Key:
[1] = tested on: Erysiphe [syn. Blumeria] graminis forma specialis. tritici; assay: Activity against mildew of wheat (protective spray, wheat seedlings cultivar Kanzler); format: in vivo; settings: 7 days, control 77% infestation
Experimental: (§1) The active compounds, separately or together, were formulated as a 10% emulsion in a mixture of 63% by weight of cyclohexanone and 27% by weight of emulsifier, and diluted with water to the desired concentration.
(§2) Evaluation was carried out by determining the infected leaf areas in percent. These percentages were converted into efficacies. The efficacy (W) was calculated as follows using Abbot's formula: [formula] • α corresponds to the fungal infection of the treated plants in % and • β corresponds to the fungal infection of the untreated (control) plants in %
(§3) An efficacy of 0 means that the infection level of the treated plants corresponds to that of the untreated control plants; an efficacy of 100 means that the treated plants were not infected.
(§4) The expected efficacies of the mixtures of the active compounds were determined using Colby's formula [R. S. Colby, Weeds 15, 20-22 (1967)] and compared with the observed efficacies. Colby's formula: E x+y−x•y/100 • E expected efficacy, expressed in % of the untreated control, when using the mixture of the active compounds A and B at the concentrations a and b • x efficacy, expressed in % of the untreated control, when using active compound A at a concentration of a • y efficacy, expressed in % of the untreated control, when using active compound B at a concentration of b.
Leaves of wheat seedlings of the cultivar “Kanzler”, which had been grown in pots, were sprayed to runoff point with an aqueous suspension having the concentration of active compound stated below. The suspension or emulsion was prepared from a stock solution with 10% of active compound in a mixture comprising 85% of cyclohexanone and 5% of emulsifier. 24 hours after the spraycoating had dried on, the plants were dusted with spores of mildew of wheat (Erysiphe [syn. Blumeria] graminis forma specialis. tritici). The test plants were then placed in a greenhouse at 20-24° C. and 60-90% relative atmospheric humidity. After 7 days, the extent of the mildew development was determined visually in % infection of the total leaf area.
The visually determined values for the percentage of diseased leaf areas were converted into efficacies in % of the untreated control. An efficacy of 0 means the same disease level as in the untreated control, an efficacy of 100 means 0% disease. The expected efficacies for combinations of active compounds were determined using the abovementioned Colby formula and compared with the observed efficacies.

Puccinia recondita = assay: Curative activity against brown rust of wheat (wheat seedlings cultivar Kanzler); format: in vivo; settings: 7 days, control 90% infestation
Experimental: as §1, §2, §3, §4
Leaves of wheat seedlings of the cultivar “Kanzler”, which had been grown in pots, were dusted with spores of brown rust (Puccinia recondita). The pots were then placed in a chamber with high atmospheric humidity (90-95%), at 20-22° C. During this time, the spores germinated and the germinal tubes penetrated into the leaf tissue. The next day, the infected plants were sprayed to runoff point with an aqueous suspension having the concentration of active compound stated below. The suspension or emulsion was prepared from a stock solution with 10% of active compound in a mixture comprising 85% of cyclohexanone and 5% of emulsifier. After the spray coating had dried on, the test plants were cultivated in a greenhouse at 20-22° C. in 65-70% relative atmospheric humidity for 7 days. The extent of the rust fungus development on the leaves was then determined.
The visually determined values for the percentage of diseased leaf areas were converted into efficacies in % of the untreated control. An efficacy of 0 means the same disease level as in the untreated control, an efficacy of 100 means 0% disease. The expected efficacies for active compound combinations were determined using the abovementioned Colby formula and compared with the observed efficacies.

Row | SMILES | Efficacy in % of the untreated control ([1]; 0.25 ppm in the spray liquor) | Efficacy in % of the untreated control ([1]; 1 ppm in the spray liquor) | Efficacy in % of the untreated control (Puccinia recondita; 0.25 ppm in the spray liquor) | Efficacy in % of the untreated control (Puccinia recondita; 1 ppm in the spray liquor) | Efficacy in % of the untreated control ([1]; 0.15 ppm in the spray liquor) | Efficacy in % of the untreated control ([1]; 0.6 ppm in the spray liquor) | Efficacy in % of the untreated control ([1]; 2.5 ppm in the spray liquor) | Efficacy in % of the untreated control (Puccinia recondita; 0.15 ppm in the spray liquor) | Efficacy in % of the untreated control (Puccinia recondita; 0.6 ppm in the spray liquor) | Efficacy in % of the untreated control (Puccinia recondita; 2.5 ppm in the spray liquor)
1 | OC(Cc1ccccc1Cl)(Cn1nc[nH]c1=S)C1(Cl)CC1 (stereo not drawn) [Compound I, 2-[2-(1-chlorocyclopropyl)-3-(2-chlorophenyl)-2-hydroxy-propyl]-2,4-dihydro-[1,2,4]-triazole-3-thione] | 0% | 0% | 22% | 78% |  |  |  |  |  | 
2 | CC(Cc1ccc(C(C)(C)C)cc1)CN1C[C@@H](C)O[C@@H](C)C1 (stereo partly drawn) [Compound II, fenpropimorph] |  |  |  |  | 0% | 0% | 74% | 0% | 0% | 22%
3 | CCCCCCCCCCCCCN1CC(C)OC(C)C1 (stereo not drawn) [Compound III, tridemorph] |  |  |  |  | 0% | 0% | 48% | 0% | 0% | 0%
4 | CC(Cc1ccc(C(C)(C)C)cc1)CN1CCCCC1 (stereo not drawn) [Compound IV, fenpropidin] |  |  |  |  | 0% | 61% |  | 0% | 0% | 44%

Source: patent US20050107376A1, “Fungicidal mixtures based on prothioconazole” (priority 2002, published 2005)
